According to patent publication US20240262866A1, “METHOD FOR PREPARING ANIDULAFUNGIN DERIVATIVE” (Shanghai Senhui Medicine Co., Ltd., priority 2021, published 2024):
Like-named read-outs stand apart in the source and are kept apart here. *1 amine or outer side, *2 acyl side, *3 side chain or, on linkers, in order; H or OH if unused. Where a SMILES comes first, the peptide text is derived from it. Bridges are numbered along the chain shown (N, C = ends). [ ]: non-standard residue; d: D form. The star is where a group is joined. pTerphenylCO(4''-OnC5H11) = CCCCCOc1ccc(-c2ccc(-c3ccc(C(=O)*)cc3)cc2)cc1; Orn(4R-OH,5R-OH) = O=C([C@H](C[C@@H](O)[C@@H](O)N[*:3])N[*:1])[*:2]; hTyr(3S-OH,4S-OH) = N[C@H](C(=O)O)[C@H](O)[C@@H](O)c1ccc(O)cc1; Pro(3S-OH,4S-Me) = C[C@H]1CN[C@H](C(=O)O)[C@H]1O; Hyp = O=C(O)[C@@H]1C[C@@H](O)CN1

Tests used:
[1] = tested on: Candida albicans ATCC 90029; assay: MIC assay (CLSI M27-A3), Candida albicans ATCC 90029; assay type: cell-based; conditions: first batch; 24 h, ≥50% growth inhibition
Description: (§1) After a test compound was serially diluted, an MIC (minimum inhibitory concentration) assay was performed on the standard Candida strain and an MEC (minimum effective concentration) assay on the standard Aspergillus strain. The MIC assay was performed according to the guidelines of the Clinical and Laboratory Standards Institute (CLSI M27-A3) and the MEC assay according to the guidelines of the Clinical and Laboratory Standards Institute (CLSI M38-A2).
(§2) The frozen strain was passaged at least twice, and a single colony was picked and resuspended in normal saline or sterile water in a tube. […]
(§3) For echinocandin drugs, Aspergillus was incubated at 28° C. for 21-26 h, and then the MEC results were read.
(§4) • Yeast-type fungi: A disposable sealing film was applied to the 96-well plate, and the mixture was well mixed by shaking. Observation was performed through a plate reader with the naked eye. […] Pictures were taken and saved using an automatic plate reader. • Aspergillus: For echinocandin drugs, comparisons were made to the growth control under a plate reader, and the minimum drug concentration that could cause the hyphae to form small, round, compact hyphal particles was defined as MEC. For accurate determination of MEC values, the plate must not be vortexed before reading.

[2] = tested on: Candida krusei ATCC 6258; assay: MIC assay (CLSI M27-A3), Candida krusei ATCC 6258; assay type: cell-based; conditions: first batch; 24 h, ≥50% growth inhibition; quality control strain
Description: as §1, §2, §3, §4

[3] = tested on: Candida tropicalis ATCC 750; assay: MIC assay (CLSI M27-A3), Candida tropicalis ATCC 750; assay type: cell-based; conditions: first batch; 24 h, ≥50% growth inhibition
Description: as §1, §2, §3, §4

[4] = tested on: Candida glabrata ATCC 15126; assay: MIC assay (CLSI M27-A3), Candida glabrata ATCC 15126; assay type: cell-based; conditions: first batch; 24 h, ≥50% growth inhibition
Description: as §1, §2, §3, §4

[5] = tested on: Aspergillus flavus ATCC 28539; assay: MEC assay (CLSI M38-A2), Aspergillus flavus ATCC 28539; assay type: cell-based; conditions: first batch; 28° C., 21-26 h
Description: as §1
Aspergillus was passaged onto an SDA plate and cultured at 35° C. for 48 h to 7 d to induce sporulation. Colonies on the plate were covered with about 1 mL of 0.85% normal saline or sterile water (polysorbate 20 was added at a final concentration of 0.1%-0.01%). The medium was gently wiped on its surface with a tip or a sterile cotton swab (be careful not to break the medium), and the spore hyphae suspension was transferred to a sterile tube and let stand for 3-5 min so that the heavy particles settled. The homogeneous upper layer of the suspension was transferred to a new sterile tube, which was then sealed and vortexed for 15 s (be careful as the suspension may produce an aerosol when the cover is removed). The concentration of the suspension was adjusted until an OD value of 0.09-0.13 was achieved using a spectrophotometer at 530 nm. The suspension was 50-fold diluted with 1×RPMI 1640. 100 μL of sample was added to each well of the 96-well plate within 2 h after dilution (the final spore concentration in the susceptibility testing plate was at 0.4×10^4 to 5×10^4 CFU/mL).
Colony counting: The suspension diluted with RPMI 1640 was further diluted 10-fold, and 10 μL of the dilution was applied to an SDA plate, cultured at 28° C., and observed every day; colonies were immediately counted upon being visible to the naked eye.
as §3
• Yeast-type fungi: A disposable sealing film was applied to the 96-well plate, and the mixture was well mixed by shaking. Observation was performed through a plate reader with the naked eye. Comparisons were made to the growth control, and the minimum compound concentration corresponding to ≥50% growth inhibition was defined as MIC. Pictures were taken and saved using an automatic plate reader. • Aspergillus: For echinocandin drugs, comparisons were made to the growth control under a plate reader, and the minimum drug concentration that could cause the hyphae to form small, round, compact hyphal particles was defined as MEC. For accurate determination of MEC values, the plate must not be vortexed before reading.

[6] = tested on: Candida parapsilosis ATCC 22019; assay: MIC assay (CLSI M27-A3), Candida parapsilosis ATCC 22019; assay type: cell-based; conditions: first batch; 24 h, ≥50% growth inhibition; quality control strain
Description: as §1, §2, §3, §4

[7] = tested on: Meyerozyma guilliermondii ATCC 6260; assay: MIC assay (CLSI M27-A3), Meyerozyma guilliermondii ATCC 6260; assay type: cell-based; conditions: first batch; 24 h, ≥50% growth inhibition
Description: as §1, §2, §3, §4

[8] = tested on: Candida albicans (azole drug-resistant strain) R357; assay: MIC assay (CLSI M27-A3), Candida albicans azole drug-resistant strain R357; assay type: cell-based; conditions: second batch; 24 h
Description: as §1, §2, §3, §4

[9] = tested on: Candida albicans ATCC 44858; assay: MIC assay (CLSI M27-A3), Candida albicans ATCC 44858; assay type: cell-based; conditions: second batch; 24 h
Description: as §1, §2, §3, §4

[10] = tested on: SD rats; assay: General state observation after single intravenous injection; assay type: in vivo; conditions: 10 mg/kg single intravenous injection, day of administration
Description: (§5) 12 SD rats were divided into 2 groups of 6 (half are male and half female). […] The body weights were measured once before administration. Administration was performed by single intravenous injection for 20 min per animal. PK measurement was performed once before administration and 5 min, 30 min, 1 h, 4 h, 8 h, 24 h, 48 h, 72 h and 96 h after administration. A histamine assay was performed once before administration and 30 min, 4 h, 8 h and 24 h after administration.

[11] = tested on: Candida glabrata ATCC 36583; assay: MIC assay (CLSI M27-A3), Candida glabrata ATCC 36583; assay type: cell-based; conditions: second batch; 24 h
Description: as §1, §2, §3, §4

[12] = tested on: Candida albicans ATCC 90028; assay: MIC assay (CLSI M27-A3), Candida albicans ATCC 90028; assay type: cell-based; conditions: second batch
Description: as §1, §2, §3, §4

[13] = tested on: plasma histamine; assay: Plasma histamine assay after single intravenous injection; assay type: in vivo, SD rats
Description: as §5

[14] = tested on: Candida albicans (azole drug-resistant strain) R358; assay: MIC assay (CLSI M27-A3), Candida albicans azole drug-resistant strain R358; assay type: cell-based; conditions: second batch; 24 h
Description: as §1, §2, §3, §4

[15] = tested on: Candida tropicalis (amphotericin-resistant strain) ATCC 200956; assay: MIC assay (CLSI M27-A3), Candida tropicalis amphotericin-resistant strain ATCC 200956; assay type: cell-based; conditions: second batch; 24 h
Description: as §1, §2, §3, §4

[16] = Pharmacokinetic study after single intravenous injection; assay type: in vivo, SD rats; conditions: Sprague-Dawley, rat, plasma, 10 mg/kg i.v.; for AUC(0-t): read-out: AUC0-96; for Vd: read-out: VdSS
Description: as §5

Compound: Caspofungin acetate
- MIC Candida albicans ATCC 90029 [1]: 0.063 mg/L
- MIC Candida krusei ATCC 6258 [2]: 1 mg/L
- MIC Candida tropicalis ATCC 750 [3]: 0.016 mg/L
- MIC Candida glabrata ATCC 15126 [4]: 0.25 mg/L
- MEC Aspergillus flavus ATCC 28539 [5]: 0.031 µg/mL
- MIC Candida parapsilosis ATCC 22019 [6]: 1 mg/L
- MIC Meyerozyma guilliermondii ATCC 6260 [7]: 1 mg/L

Compound: CCCCCOc1ccc(-c2ccc(-c3ccc(C(=O)N[C@H]4C[C@@H](O)[C@@H](O)NC(=O)[C@@H]5[C@@H](O)[C@@H](C)CN5C(=O)[C@H]([C@@H](C)O)NC(=O)[C@H]([C@H](O)[C@@H](O)c5ccc(O)cc5)NC(=O)[C@@H]5C[C@@H](O)CN5C(=O)[C@H]([C@@H](C)O)NC4=O)cc3)cc2)cc1 [Anidulafungin] ({pTerphenylCO(4''-OnC5H11)}-[Orn(4R-OH,5R-OH)]T[Hyp][hTyr(3S-OH,4S-OH)]T[Pro(3S-OH,4S-Me)]; lactam 1-C)
- MEC Aspergillus flavus ATCC 28539 [5]: 0.031 µg/mL

Compound: Rezafungin acetate
- MIC Candida albicans (azole drug-resistant strain) R357 [8]: 0.25 mg/L
- MIC Candida albicans ATCC 90029 [1]: 0.125 mg/L
- MIC Candida albicans ATCC 44858 [9]: 0.25 mg/L
- general state observation [10]: transient slight decrease in activity occurred in 2 females
- MIC Candida glabrata ATCC 36583 [11]: 0.25 mg/L
- MIC Candida albicans ATCC 90028 ([12]; 24 h): 0.25 mg/L
- MIC Candida albicans + 50% human serum ATCC 90028 ([12]; + 50% human serum): 0.25 mg/L
- MIC Candida krusei ATCC 6258 [2]: 0.25 mg/L
- fold higher mean plasma histamine concentration than group 1 ([13]; 30 min after administration, 10 mg/kg i.v., p=0.046): 4.5 times
- MIC Candida tropicalis ATCC 750 [3]: 0.016 mg/L
- MIC Candida glabrata ATCC 15126 [4]: 0.125 mg/L
- MEC Aspergillus flavus ATCC 28539 [5]: 0.031 µg/mL
- MIC Candida parapsilosis ATCC 22019 [6]: 2 mg/L
- MIC Candida albicans (azole drug-resistant strain) R358 [14]: 0.25 mg/L
- MIC Candida tropicalis (amphotericin-resistant strain) ATCC 200956 [15]: 0.25 mg/L
- MIC Meyerozyma guilliermondii ATCC 6260 [7]: 2 mg/L

Compound: CCCCCOc1ccc(-c2ccc(-c3ccc(C(=O)N[C@H]4C[C@@H](O)[C@@H](OC[C@H]5CCC[N+]5(C)C)NC(=O)[C@@H]5[C@@H](O)[C@@H](C)CN5C(=O)[C@H]([C@@H](C)O)NC(=O)[C@H]([C@H](O)[C@@H](O)c5ccc(O)cc5)NC(=O)[C@@H]5C[C@@H](O)CN5C(=O)[C@H]([C@@H](C)O)NC4=O)cc3)cc2)cc1 [Compound of formula (I)]
- ability to induce increases in the histamine level in rats ([13]; same dose (10 mg/kg) i.v., compared with rezafungin acetate): significantly lower
- MEC Aspergillus flavus ATCC 28539 [5]: 0.031 µg/mL
- AUC(0-inf) ([16]; female SD rats): 195 µg·h/mL
- Cmax ([16]; female SD rats): 9.3 µg/mL
- clearance ([16]; female SD rats): 0.054 L/h/kg
- half-life ([16]; female SD rats): 25.5 h
- AUC(0-t) ([16]; female SD rats): 180 µg·h/mL
- Vd ([16]; female SD rats): 1.8 L/kg
- AUC(0-inf) ([16]; male SD rats): 191 µg·h/mL
- Cmax ([16]; male SD rats): 8 µg/mL
- clearance ([16]; male SD rats): 0.054 L/h/kg
- half-life ([16]; male SD rats): 27.7 h
- AUC(0-t) ([16]; male SD rats): 174 µg·h/mL
- Vd ([16]; male SD rats): 1.9 L/kg
